Measurements: patent US8663616B2, “Enzymatic peracid generation for use in oral care products” (E I du Pont de Nemours and Company, priority 2010, dated 2014)

Experiments:
[1] = One-step bleaching of stained bovine enamel with targeted perhydrolase (Example 13); settings: 0.1% PAA
Method: (§1) Whiteness index (WI) is defined by the International Commission on Illumination (CIE) and described in ASTM method E313-05 and calculated for D65/10 incident light as: WI=Y+800*(0.3138−x)+1700*(0.3310−y) Where Y, x, and y are the luminance factor and the chromaticity coordinates respectively of the enamel substrate.
(§2) Bovine enamel incisors were prepared as indicated in Example 1. Stained bovine enamel blocks were hydrated in water at least 1 h prior to use to stabilize the color of the substrate. The color for each enamel block was measured after hydration prior to the start of the experiment. Two enamel samples were treated for each solution type. The solutions used were a buffer only control, 0.1% Peracetic Acid, a perhydrolase composition including 0.52 μM EZ-7 (C277S with enamel binding domain; SEQ ID NO: 429), 100 mM triacetin and 32.6 mM H2O2. All solutions were prepared in 100 mM sodium phosphate buffer, pH 7.2. All solutions were freshly prepared for each treatment point. The enzyme-triacetin-H2O2 combination was mixed immediately before enamel exposure. After each treatment step, each enamel block was rinsed with water and a color measurement was obtained. A treatment time of 30 min was repeated 4 times for each set of enamel substrates. The concentration of peracetic acid in solution after a 30 min treatment was evaluated by colorimetric detection of ABTS oxidation.

[2] = Peracetic acid in treatment solution by ABTS (Example 13); format: biochemical; settings: after 30 min treatment
Method: (§3) Determination of the peracetic acid (PAA) concentration in the reaction mixtures by a colorimetric method was performed according to the method described by Dinu et. al. (supra). A reagent solution of 1 mM 2,2′-azino-bis(3-ethylbenzothiazoline)-6-sulfonate (ABTS), 50 μM potassium iodide in 125 mM potassium citrate buffer at pH 5.0 was prepared. […] The solution was analyzed for absorbance at 405 nm using a Microplate reader. A comparison of relative amounts of peracetic acid in solution was determined by comparing absorbance values directly.
as §2

[3] = Peracetic acid vs hydrogen peroxide bleaching of coffee/tea stained bovine enamel (whiteness index); settings: for ΔWI: 0 to 61 min; for Whiteness Index 0 min: before exposure
Description: This example describes the use of peracetic acid to achieve a bleaching effect on model stained enamel surfaces. Bovine enamel incisors were obtained from SE Dental (Baton Rouge, La.). Teeth were sectioned and cut into enamel slabs approximately 7 mm on each side using a DREMEL® rotary saw (Robert Bosch Power Tool Corporation; Chicago, Ill.) with a diamond blade. The enamel slabs were cleaned and lightly polished to remove surface debris. The enamel was pretreated with a mixture of coffee and tea for 1-5 days in order to stain to a color similar to human stained teeth.
Each enamel block was hydrated in water for at least 1 hr prior to use. Color measurements for the substrate were obtained prior to exposure to test solutions. Solutions of peracetic acid were prepared from a 32% stock in 500 mM sodium phosphate buffer, pH 7.2. A solution of 2.5% H2O2 was also prepared in the same buffer. Multiple enamel blocks were exposed to each solution for 1 min followed by additional exposures of 5 min, 10 min, 15 min and 30 min. For each treatment, a fresh solution of peracetic acid and hydrogen peroxide was prepared from the stock solutions. After each treatment the enamel blocks were rinsed with water and measured with a Konica-Minolta 2600d spectrophotometer.
as §1

[4] = One-step bleaching of stained bovine enamel with perhydrolase system (Example 12)
Description: as §1
(§4) The purpose of this example is to show the tooth bleaching effect of enzymatic generated peracetic acid in a one-step application and compare to the performance achieved with chemically derived peracetic acid. Two methods were developed to use a perhydrolytic enzyme (CE-7 perhydrolase) system to achieve the target level of tooth bleaching. The first method (referred to herein as the “one-step approach”) comprises combining different amounts of at least one CE-7 perhydrolase with triacetin (an example of a suitable ester substrate) and hydrogen peroxide to generate peracetic acid using model stained enamel substrates. Bovine enamel incisors were prepared as indicated in Example 1. Stained bovine enamel blocks were hydrated in water at least 1 hr prior to use to stabilize the color of the substrate. The color for each enamel block was measured after hydration prior to the start of the experiment. Three enamel samples were treated for each solution type. The solutions used were a buffer only control, 2.5% H2O2, 1% peracetic acid, a perhydrolase composition including 10 μM EZ-1 (C277S; SEQ ID NO: 424), 100 mM triacetin and 250 mM H2O2 and a no enzyme control of 100 mM triacetin and 250 mM H2O2. All solutions were prepared in 500 mM sodium phosphate buffer, pH 7.2. The high buffer strength was necessary to maintain the 1% peracetic acid solution at neutral pH. All solutions were freshly prepared for each treatment point. The enzyme-triacetin-H2O2 combination and triacetin-H2O2 combination was mixed immediately before enamel exposure. After each treatment step, each enamel block was rinsed with water and a color measurement was obtained. A total treatment time of 61 min was used with durations of exposure of 1 min, 5 min, 10 min, 15 min and 30 min. The concentration of peracetic acid in solution after the 1 min, 10 min and 30 min treatments was evaluated by colorimetric detection of ABTS oxidation.

[5] = Peracetic acid in treatment solution by ABTS absorbance (Example 12); format: biochemical; settings: 1:100 dilution into ABTS reagent
Description: as §4, §3

## CC(=O)OO [PAA, peracetic acid]
[1]
  Whiteness Index 30 min: −101.9
  Whiteness Index 60 min: −91.9
  Whiteness Index 90 min: −80.2
  Whiteness Index 120 min: −70.8
[1]; 0 to 120 min
  ΔWI: 55.0
[1]; before treatment, 100 mM sodium phosphate pH 7.2, average of two substrates
  Whiteness Index 0 min: −125.8
[2]
  PAA (ppm): 920 ppm
[2]; 1:10 dilution into ABTS reagent
  Absorbance 405 nm Tooth2: 1.043
[2]; 1:10 dilution into ABTS reagent, 0.1% PAA or 0.52 μM EZ-7/100 mM triacetin/32.6 mM H2O2
  Absorbance 405 nm Tooth1: 1.103
[3]; Table 1, 2.5% H2O2 or 0.5% PAA
  ΔWI: 90.8
[3]; Table 1, 2.5% H2O2 or 0.5% PAA, cumulative exposure 1 min
  Whiteness Index 1 min: −111.6
[3]; Table 1, 2.5% H2O2 or 0.5% PAA, cumulative exposure 6 min
  Whiteness Index 6 min: −80.7
[3]; Table 1, 2.5% H2O2 or 0.5% PAA, cumulative exposure 16 min
  Whiteness Index 16 min: −56.5
[3]; Table 1, 2.5% H2O2 or 0.5% PAA, cumulative exposure 31 min
  Whiteness Index 31 min: −44.5
[3]; Table 1, 2.5% H2O2 or 0.5% PAA, cumulative exposure 61 min
  Whiteness Index 61 min: −38.3
[3]; Table 1, 2.5% H2O2 or 0.5% PAA, 500 mM sodium phosphate pH 7.2
  Whiteness Index 0 min: −129.1
[3]; Table 2, 0.05% PAA
  Whiteness Index 1 min: −97.1
  Whiteness Index 6 min: −93.1
  Whiteness Index 16 min: −70.1
  Whiteness Index 31 min: −59.0
  Whiteness Index 61 min: −34.7
  ΔWI: 68.7
  Whiteness Index 0 min: −103.4
[3]; Table 2, 0.2% PAA
  Whiteness Index 1 min: −85.5
  Whiteness Index 6 min: −67.0
  Whiteness Index 16 min: −47.5
  Whiteness Index 31 min: −31.7
  Whiteness Index 61 min: −16.2
  ΔWI: 74.4
  Whiteness Index 0 min: −90.6
[3]; Table 2, 0.5% PAA
  Whiteness Index 1 min: −86.6
  Whiteness Index 6 min: −64.1
  Whiteness Index 16 min: −46.4
  Whiteness Index 31 min: −32.7
  Whiteness Index 61 min: −24.7
  ΔWI: 72.8
  Whiteness Index 0 min: −97.5
[3]; Table 2, 1% PAA
  Whiteness Index 1 min: −89.3
  Whiteness Index 16 min: −36.0
  Whiteness Index 31 min: −20.6
  Whiteness Index 61 min: −5.1
  ΔWI: 97.7
  Whiteness Index 0 min: −102.8
[3]; compared to buffer and hydrogen peroxide controls
  bleaching of stained enamel (in words): effective bleaching agent
[4]; before treatment, 2.5% H2O2, 100 mM triacetin/250 mM H2O2, 1% PAA, 10 μM EZ-1/100 mM triacetin/250 mM H2O2, pH 7.2
  Whiteness Index 0 min: −145.7
[4]; one-step, 0 to 61 min
  ΔWI: 86.3
[4]; one-step, cumulative treatment 1 min
  Whiteness Index 1 min: −119.6
[4]; one-step, cumulative treatment 6 min
  Whiteness Index 6 min: −73.4
[4]; one-step, cumulative treatment 16 min
  Whiteness Index 16 min: −62.9
[4]; one-step, cumulative treatment 31 min
  Whiteness Index 31 min: −59.0
[4]; one-step, cumulative treatment 61 min
  Whiteness Index 61 min: −59.4
[5]; peracetic acid at end of 1 min treatment
  Absorbance 405 nm, 1 min: 2.579
[5]; peracetic acid at end of 10 min treatment
  Absorbance 405 nm, 10 min: 1.863
[5]; peracetic acid at end of 30 min treatment
  Absorbance 405 nm, 30 min: 2.874
